# Data taken from PMC4686210, “Binding of Cyclic Di-AMP to the Staphylococcus aureus Sensor Kinase KdpD Occurs via the Universal Stress Protein Domain and Downregulates the Expression of the Kdp Potassium Transporter” (Journal of Bacteriology, 2015).
# Molecular target: T1, KdpD (sensor histidine kinase KdpD, KdpD^Sa) (Staphylococcus aureus, UniProt Q2FWH7)
# T1 construct: USP domain, amino acids E225 to F383, MBP fusion [MBP-KdpD(USP)]
# Test: DRaCALA with […]-c-di-AMP and purified MBP-KdpD(USP); cold nucleotide competition
# Type: binding
# T1 sequence (Q2FWH7 225-383): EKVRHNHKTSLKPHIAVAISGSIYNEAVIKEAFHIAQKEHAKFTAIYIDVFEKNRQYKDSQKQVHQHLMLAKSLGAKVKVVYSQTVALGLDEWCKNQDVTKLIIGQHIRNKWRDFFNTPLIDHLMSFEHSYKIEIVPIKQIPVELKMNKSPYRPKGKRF
smiles,measurement,value
Nc1ncnc2c1ncn2[C@@H]1O[C@@H]2COP(=O)(O)O[C@H]3[C@@H](O)[C@H](n4cnc5c(N)ncnc54)O[C@@H]3COP(=O)(O)O[C@H]2[C@H]1O [c-di-AMP],Kd,2 ± 0.18 µM
